Literature values as cited in patent publication US7309714B2, “Phenylalanine derivatives as dipeptidyl peptidase inhibitors for the treatment or prevention of diabetes” (Merck & Co., Inc., priority 2003, dated 2007).

What was measured:
[1] = system: cardiac allograft; conditions: rats; survival doubled from day 7 to day 14
[2] = target: T1, DP-IV (Homo sapiens, UniProt P27487)
T1 construct: GRF is rapidly degraded in plasma to GRF[3-44]; from tissue

[3] = system: hematopoiesis; conditions: mouse, cyclophosphamide-induced neutropenia

T1 sequence (P27487 whole entry): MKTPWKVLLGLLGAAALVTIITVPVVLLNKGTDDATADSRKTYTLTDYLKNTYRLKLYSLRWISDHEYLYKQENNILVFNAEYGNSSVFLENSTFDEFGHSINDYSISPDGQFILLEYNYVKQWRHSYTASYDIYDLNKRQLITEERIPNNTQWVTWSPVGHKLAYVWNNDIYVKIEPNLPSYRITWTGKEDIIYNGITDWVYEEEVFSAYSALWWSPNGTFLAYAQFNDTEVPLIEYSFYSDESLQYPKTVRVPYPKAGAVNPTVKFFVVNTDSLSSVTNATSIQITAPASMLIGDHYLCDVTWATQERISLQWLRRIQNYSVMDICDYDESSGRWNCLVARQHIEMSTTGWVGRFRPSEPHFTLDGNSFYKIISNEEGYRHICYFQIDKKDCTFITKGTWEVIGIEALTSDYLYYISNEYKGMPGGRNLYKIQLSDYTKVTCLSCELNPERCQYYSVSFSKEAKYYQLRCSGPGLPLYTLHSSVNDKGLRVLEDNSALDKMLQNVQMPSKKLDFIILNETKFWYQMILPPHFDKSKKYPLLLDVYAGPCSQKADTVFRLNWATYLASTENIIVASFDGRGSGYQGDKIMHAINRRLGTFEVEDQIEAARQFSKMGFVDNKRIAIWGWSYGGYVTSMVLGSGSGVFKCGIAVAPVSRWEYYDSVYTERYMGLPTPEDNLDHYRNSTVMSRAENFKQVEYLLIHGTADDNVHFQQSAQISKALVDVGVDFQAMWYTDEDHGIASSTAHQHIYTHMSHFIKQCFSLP

## CC(C)N1CCC(c2ccccc2)(c2ccccc2)CC1 [Prodipine, Pro-Pro-diphenyl-phosphonate]
[1]
  cardiac allograft survival: 14 day

## CC[C@H](C)[C@H](N)C(=O)N1CCC[C@H]1C(=O)N[C@H](C(=O)O)[C@@H](C)CC [diprotin A]
[2]
  effect on degradation of GRF to GRF[3-44] in plasma: prevented

## CC(C)[C@H](N)C(=O)N1CCC[C@H]1B(O)O [Val-Boro-Pro]
[3]
  effect on hematopoiesis: stimulated hematopoiesis
